Assay [1] has as its target 5'-AMP-activated protein kinase catalytic subunit alpha-1 (Homo sapiens) (UniProt Q13131). Briefly: Inhibition of AMPKalpha1 at 10 uM by colorimetric analysis.
Assay [2] concerns the target T1, Tyrosine-protein kinase receptor TYRO3 (Homo sapiens) (UniProt Q06418).
T1 sequence (whole entry): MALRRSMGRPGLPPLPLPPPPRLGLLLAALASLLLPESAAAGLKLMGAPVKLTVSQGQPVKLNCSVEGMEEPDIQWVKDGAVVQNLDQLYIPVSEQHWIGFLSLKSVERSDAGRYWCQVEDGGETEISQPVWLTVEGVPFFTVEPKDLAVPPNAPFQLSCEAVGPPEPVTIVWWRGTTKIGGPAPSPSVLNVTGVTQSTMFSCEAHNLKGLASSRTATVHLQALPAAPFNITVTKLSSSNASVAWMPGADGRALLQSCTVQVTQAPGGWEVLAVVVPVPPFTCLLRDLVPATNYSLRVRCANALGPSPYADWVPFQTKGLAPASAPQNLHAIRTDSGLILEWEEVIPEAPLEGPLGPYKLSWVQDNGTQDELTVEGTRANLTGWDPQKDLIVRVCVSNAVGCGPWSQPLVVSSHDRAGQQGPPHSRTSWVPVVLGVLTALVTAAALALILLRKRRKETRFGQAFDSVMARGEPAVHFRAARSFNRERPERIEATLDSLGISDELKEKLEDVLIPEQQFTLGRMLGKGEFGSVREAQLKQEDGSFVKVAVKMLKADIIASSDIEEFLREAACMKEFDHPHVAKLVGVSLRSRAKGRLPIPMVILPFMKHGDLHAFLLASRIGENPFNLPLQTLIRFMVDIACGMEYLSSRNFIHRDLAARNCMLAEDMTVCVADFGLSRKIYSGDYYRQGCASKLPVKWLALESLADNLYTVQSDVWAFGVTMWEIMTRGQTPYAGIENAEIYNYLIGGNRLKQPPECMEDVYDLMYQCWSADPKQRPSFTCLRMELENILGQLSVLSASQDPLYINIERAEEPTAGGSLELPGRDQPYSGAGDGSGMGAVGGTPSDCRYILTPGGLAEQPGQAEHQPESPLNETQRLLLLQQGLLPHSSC
The experiment in a line: Inhibition of TYRO3 at 10 uM by colorimetric analysis.

Assay [3] concerns the target T2, Inhibitor of nuclear factor kappa-B kinase subunit beta (Homo sapiens) (UniProt O14920).
T2 sequence (whole entry): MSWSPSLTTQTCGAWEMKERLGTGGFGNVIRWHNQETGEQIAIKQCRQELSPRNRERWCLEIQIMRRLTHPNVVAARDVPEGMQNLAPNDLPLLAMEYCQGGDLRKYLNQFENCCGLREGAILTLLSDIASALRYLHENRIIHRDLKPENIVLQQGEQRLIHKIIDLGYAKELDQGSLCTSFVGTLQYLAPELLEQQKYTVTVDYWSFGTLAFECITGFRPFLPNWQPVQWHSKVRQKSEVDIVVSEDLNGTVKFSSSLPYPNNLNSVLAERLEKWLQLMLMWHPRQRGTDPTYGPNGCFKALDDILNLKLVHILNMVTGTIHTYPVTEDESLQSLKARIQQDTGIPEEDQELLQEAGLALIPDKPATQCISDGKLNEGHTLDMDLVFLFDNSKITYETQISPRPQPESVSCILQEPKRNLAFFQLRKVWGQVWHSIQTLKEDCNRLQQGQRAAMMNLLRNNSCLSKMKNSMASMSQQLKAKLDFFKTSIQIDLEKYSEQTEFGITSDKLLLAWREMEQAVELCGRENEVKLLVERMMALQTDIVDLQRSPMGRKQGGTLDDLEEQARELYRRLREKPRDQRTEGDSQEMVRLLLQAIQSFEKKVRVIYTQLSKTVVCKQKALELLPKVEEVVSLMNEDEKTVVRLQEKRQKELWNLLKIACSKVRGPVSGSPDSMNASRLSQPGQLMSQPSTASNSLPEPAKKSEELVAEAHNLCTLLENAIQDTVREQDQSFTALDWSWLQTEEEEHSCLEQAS
The experiment in a line: Inhibition of IKK-beta at 10 uM by colorimetric analysis.

In assay [4] the target is T3, Serine/threonine-protein kinase 4 (Homo sapiens) (UniProt Q13043).
T3 sequence (whole entry): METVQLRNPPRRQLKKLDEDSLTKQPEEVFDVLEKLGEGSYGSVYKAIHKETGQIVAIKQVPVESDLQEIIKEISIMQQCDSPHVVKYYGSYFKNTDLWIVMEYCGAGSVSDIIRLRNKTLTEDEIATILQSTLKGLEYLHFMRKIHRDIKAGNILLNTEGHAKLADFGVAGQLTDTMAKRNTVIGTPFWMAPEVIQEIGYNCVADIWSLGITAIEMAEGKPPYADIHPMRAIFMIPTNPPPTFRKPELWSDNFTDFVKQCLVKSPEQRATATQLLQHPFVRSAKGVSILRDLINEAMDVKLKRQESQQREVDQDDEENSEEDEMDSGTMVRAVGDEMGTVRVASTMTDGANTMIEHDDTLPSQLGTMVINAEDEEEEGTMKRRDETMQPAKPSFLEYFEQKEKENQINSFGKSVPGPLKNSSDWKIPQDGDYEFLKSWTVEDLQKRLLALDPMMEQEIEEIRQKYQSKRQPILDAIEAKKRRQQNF
Briefly: Inhibition of MST1 at 10 uM by colorimetric analysis.

Assay [5] deals with Tyrosine-protein kinase CSK (Homo sapiens) (UniProt P41240). Briefly: Inhibition of CSK at 10 uM by colorimetric analysis.
Tyrosine-protein kinase CSK (Homo sapiens), sequence (P41240 2-450 limits assumed): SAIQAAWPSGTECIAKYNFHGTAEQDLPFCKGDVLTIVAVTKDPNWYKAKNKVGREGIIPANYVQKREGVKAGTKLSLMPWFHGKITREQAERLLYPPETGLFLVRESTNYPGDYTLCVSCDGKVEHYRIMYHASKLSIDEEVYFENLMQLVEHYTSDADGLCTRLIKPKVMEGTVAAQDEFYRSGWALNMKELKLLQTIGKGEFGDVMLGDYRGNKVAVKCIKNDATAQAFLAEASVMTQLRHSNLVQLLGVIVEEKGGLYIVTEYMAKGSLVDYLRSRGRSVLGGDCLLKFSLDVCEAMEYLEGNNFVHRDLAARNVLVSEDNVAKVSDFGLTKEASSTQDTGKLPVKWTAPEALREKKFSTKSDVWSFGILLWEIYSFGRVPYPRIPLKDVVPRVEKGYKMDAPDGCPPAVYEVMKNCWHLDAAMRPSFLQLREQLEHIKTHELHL
Assay [6] addresses Protein kinase C alpha type (Homo sapiens) (UniProt P17252). Briefly: Inhibition of PKCalpha at 10 uM by colorimetric analysis.
Assay [7] addresses Ribosomal protein S6 kinase beta-1 (Homo sapiens) (UniProt P23443). Briefly: Inhibition of p70S6K at 10 uM by colorimetric analysis.
In assay [8] the target is RAC-alpha serine/threonine-protein kinase (Homo sapiens) (UniProt P31749). Briefly: Inhibition of AKT1 at 10 uM by colorimetric analysis.
RAC-alpha serine/threonine-protein kinase (Homo sapiens), sequence (P31749 whole entry): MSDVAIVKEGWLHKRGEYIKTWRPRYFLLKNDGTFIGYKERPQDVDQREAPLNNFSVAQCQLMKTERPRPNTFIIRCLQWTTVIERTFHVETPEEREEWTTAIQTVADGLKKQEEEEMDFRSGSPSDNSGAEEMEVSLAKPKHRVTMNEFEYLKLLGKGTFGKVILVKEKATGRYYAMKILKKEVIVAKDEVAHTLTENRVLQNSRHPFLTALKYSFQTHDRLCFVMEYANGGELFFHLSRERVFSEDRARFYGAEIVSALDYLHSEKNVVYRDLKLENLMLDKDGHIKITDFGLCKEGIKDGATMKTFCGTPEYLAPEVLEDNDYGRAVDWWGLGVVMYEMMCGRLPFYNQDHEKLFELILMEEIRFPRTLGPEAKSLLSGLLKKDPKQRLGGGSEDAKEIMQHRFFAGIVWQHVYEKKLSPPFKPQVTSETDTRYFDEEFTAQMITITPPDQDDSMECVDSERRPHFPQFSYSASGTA
Assay [9] concerns the target T4, Interleukin-1 receptor-associated kinase 4 (Homo sapiens) (UniProt Q9NWZ3).
T4 sequence (whole entry): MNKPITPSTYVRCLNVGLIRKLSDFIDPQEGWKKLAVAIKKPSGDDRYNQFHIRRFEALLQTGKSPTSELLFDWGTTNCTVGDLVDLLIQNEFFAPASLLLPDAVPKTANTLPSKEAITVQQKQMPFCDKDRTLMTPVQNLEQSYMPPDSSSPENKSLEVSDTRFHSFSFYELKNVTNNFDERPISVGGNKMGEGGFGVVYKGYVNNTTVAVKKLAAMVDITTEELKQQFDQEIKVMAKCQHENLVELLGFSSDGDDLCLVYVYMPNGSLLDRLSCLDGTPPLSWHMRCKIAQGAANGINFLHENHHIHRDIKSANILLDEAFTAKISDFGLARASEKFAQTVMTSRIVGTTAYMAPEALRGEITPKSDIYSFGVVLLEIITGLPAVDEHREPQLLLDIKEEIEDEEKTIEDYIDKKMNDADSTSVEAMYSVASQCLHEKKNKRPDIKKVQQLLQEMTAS
Briefly: Inhibition of IRAK4 at 10 uM by colorimetric analysis.

SMILES strings stand for the structures. The source made the active and inactive calls. The rule behind the calls is not given here.

Ribosomal protein S6 kinase beta-1 (Homo sapiens), sequence (P23443 whole entry, looked up): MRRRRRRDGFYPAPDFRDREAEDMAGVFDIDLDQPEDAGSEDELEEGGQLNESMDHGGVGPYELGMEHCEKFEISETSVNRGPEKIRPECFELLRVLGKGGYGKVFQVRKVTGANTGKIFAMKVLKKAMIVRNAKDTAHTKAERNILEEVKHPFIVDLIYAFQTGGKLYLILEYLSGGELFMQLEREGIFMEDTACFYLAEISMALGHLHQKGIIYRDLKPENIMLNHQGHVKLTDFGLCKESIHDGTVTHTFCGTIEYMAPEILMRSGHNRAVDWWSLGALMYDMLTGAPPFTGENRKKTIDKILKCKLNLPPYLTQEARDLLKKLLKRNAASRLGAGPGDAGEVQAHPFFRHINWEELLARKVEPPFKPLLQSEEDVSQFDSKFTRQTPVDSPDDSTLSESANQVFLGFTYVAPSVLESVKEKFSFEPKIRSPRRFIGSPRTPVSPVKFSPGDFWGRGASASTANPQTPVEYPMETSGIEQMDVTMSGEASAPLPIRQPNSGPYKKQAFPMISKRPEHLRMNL
5'-AMP-activated protein kinase catalytic subunit alpha-1 (Homo sapiens), sequence (Q13131 whole entry, looked up): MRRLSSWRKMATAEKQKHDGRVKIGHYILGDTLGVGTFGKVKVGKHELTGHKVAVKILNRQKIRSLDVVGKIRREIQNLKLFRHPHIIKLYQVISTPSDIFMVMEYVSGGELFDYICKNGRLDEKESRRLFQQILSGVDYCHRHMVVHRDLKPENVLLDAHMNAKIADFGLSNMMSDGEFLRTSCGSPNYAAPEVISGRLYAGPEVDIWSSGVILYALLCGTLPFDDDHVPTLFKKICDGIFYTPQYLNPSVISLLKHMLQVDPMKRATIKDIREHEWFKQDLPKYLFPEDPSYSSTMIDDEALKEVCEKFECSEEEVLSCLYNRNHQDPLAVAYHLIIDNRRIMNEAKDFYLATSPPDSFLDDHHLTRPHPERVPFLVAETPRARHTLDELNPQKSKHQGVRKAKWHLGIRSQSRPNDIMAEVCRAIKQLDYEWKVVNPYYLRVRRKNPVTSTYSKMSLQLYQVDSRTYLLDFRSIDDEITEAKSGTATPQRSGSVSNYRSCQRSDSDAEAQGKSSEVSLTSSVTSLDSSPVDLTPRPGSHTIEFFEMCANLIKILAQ

On to `Clc1ccc(-n2cc(-c3ccncc3)nn2)cc1`, for which the inhibition entry in assay [1], in assay [3], in [4], in assay [6], in assay [7] and in assay [8] was “Active” in each case. For the same molecule, the inhibition result in [9] is “Active”. Further, the inhibition result in assay [2] and in assay [5] was “inactive” throughout.

Consider `Clc1ccc(-n2nncc2-c2ccncc2)cc1`, for which the inhibition result in assay [1], in assay [3], in assay [4], in assay [6], in assay [7] and in [8] was “Active” in each case. For the same molecule, in assay [9], the inhibition result is “Active”. Besides, the inhibition result in assay [2] and in assay [5] was “inactive” in each case.

With `Clc1cccc(-n2nncc2-c2ccncc2)c1`, the inhibition result in [1], in assay [3], in [4], in [6], in [7] and in assay [8] was “Active” throughout. Moreover, in assay [9], the inhibition result was “Active”. The inhibition entry in [2] and in [5] was “inactive” throughout.

As to `Clc1cccc(-n2cc(-c3ccncc3)nn2)c1`, the inhibition entry in assay [1], in [3], in assay [4], in assay [6], in assay [7] and in assay [8] was “Active” each time. The inhibition entry in [9] is “Active”. Also, the inhibition result in assay [2] and in [5] was “inactive” throughout.

For the origin of these results see ChEMBL document CHEMBL1938312, “Design and combinatorial synthesis of a novel kinase-focused library using click chemistry-based fragment assembly” (Bioorg Med Chem Lett, 2012).
